In PMC10667816, “A Cell‐Penetrant Peptide Disrupting the Transcription Factor CP2c Complexes Induces Cancer‐Specific Synthetic Lethality” (Advanced Science, 2023):
Where no end group is shown, it is not given here.

Assays:
CP2c = target: T1, CP2c (Mus musculus, UniProt Q9ERA0); assay: DNA‐IP assay of CP2c DNA binding; format: biochemical; conditions: 0–3 µM peptide, concentration‐dependent
T1 construct: extracts from iMEL cells (day 2); endogenous in cells; host or cells: nuclear extract of HMBA-induced MEL (iMEL) cells, day 2
T1 sequence (Q9ERA0 whole entry): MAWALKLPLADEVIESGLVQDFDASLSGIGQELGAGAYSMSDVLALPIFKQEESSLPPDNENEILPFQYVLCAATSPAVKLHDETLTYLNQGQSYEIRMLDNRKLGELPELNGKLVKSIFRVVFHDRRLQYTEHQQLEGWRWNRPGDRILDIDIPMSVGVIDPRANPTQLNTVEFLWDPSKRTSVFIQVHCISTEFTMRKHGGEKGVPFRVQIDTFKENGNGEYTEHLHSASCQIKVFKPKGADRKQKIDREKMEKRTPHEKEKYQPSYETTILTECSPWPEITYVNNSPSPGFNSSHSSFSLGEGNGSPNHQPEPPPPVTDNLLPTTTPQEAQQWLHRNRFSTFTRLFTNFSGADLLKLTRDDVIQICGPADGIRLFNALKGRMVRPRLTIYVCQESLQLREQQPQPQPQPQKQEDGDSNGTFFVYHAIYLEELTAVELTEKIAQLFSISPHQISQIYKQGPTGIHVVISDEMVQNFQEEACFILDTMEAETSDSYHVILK
Procedure: DNA‐IP assay was performed essentially as described previously.^[ [14] ^] Each of the oligonucleotides was mixed and annealed in the TEN buffer. For the radio‐labeling of the DNA probe, the annealed DNA was incubated with a mixture of dATP, dGTP, dTTP, [α^32P]‐dCTP, and Klenow enzyme in reaction buffer (5 mM NaCl, 1 mM Tris HCl, 1 mM MgCl2, and 0.1 mM DTT) for 30 min at 25 °C, and stopped by incubation with EDTA (10 mM final) for 20 min at 75 °C. The radio‐labeled DNA probe was purified by applying the reaction mixture to ProbeQuant G‐50 micro columns (GE healthcare, GE28‐9034‐08). Whole extracts prepared from transfecting 293T cells or purified GST fused CP2c proteins (wildtype and point mutants) were incubated with a [α^32P]‐labeled DNA probe in binding buffer (4% glycerol, 10 mM Tris‐HCl, pH 7.4, 1 mM DTT, 1 mM EDTA, and 0.1% NP‐40) for 15 min at room temperature. Then 0–3 µM of peptides (Pep #5, Pep #8, Pep #5‐1, Pep #5‐2, and Pep #5‐2C) were added to the DNA‐protein mixture, and the mixtures were incubated for 15 min at room temperature (peptide sequences are listed in Table S3, Supporting Information). For IP, precleared extracts were incubated overnight at 4 °C with 1 µg of the following primary antibodies (CP2c, CP2b, and PIAS1). […] The radioactivity of the eluted probe was measured by scintillation counting.

Hep3B = Hep3B CDX mouse model; format: in vivo
Procedure: Animal experiments were conducted in accordance with ethical guidelines, and all protocols were approved by the Institutional Animal Care and Use Committee under Hanyang University (approval numbers, 2014‐0016A, 2018‐0049A, 2018‐0207A, and 2019‐0169A), Chung‐Ang University (approval number, 2015‐00022), Chungbuk University (approval number, CBNUA‐1072‐17‐02), and Konkuk University (approval number, KU17130). To establish xenograft mice models, Hep3B, A431, U343, and PC9 cells were subcutaneously injected into the flank of Balb/c nude mice. For the MDA‐MB‐231 (LM1) cell line, it was implanted into the mammary fat pad of immunodeficient mice (NPG mice). Once tumors were successfully established, the animals were randomly divided into a control (vehicle) group and an experimental (drug) group. When the tumor volume reached 100 cubic millimeters, either saline or an appropriate concentration of drugs was administrated into mice via tail vein every 3 or 5 days for appropriate duration. Tumor volume was calculated using the formula of length × width^2)/2. To generate an orthotopic liver cancer mice model, 75 mg kg^−1 (mpk) of DEN was intraperitoneally injected weekly for 3 weeks into C57BL/6 mice, followed by 100 mpk of DEN weekly for the subsequent 3 weeks. After 37 weeks of liver cancer induction, mice received either saline or an appropriate concentration of drugs via the tail vein every 5 days for the designated duration. The in vivo administration amount was determined based on the concentration of ACP52C confirmed at the cellular level, which was 2 µM. Assuming an average mouse weight of 30 grams and considering that ≈5.8% of body weight constitutes blood volume,^[ [49] ^] it was calculated that the blood concentration of ACP52C should be ten times the GI50 concentration in cell culture conditions. […] For ACP52C derivatives, the amount was adjusted to ensure a similar molar quantity of peptide injection, taking their molecular weights into account. For instance, in the case of ACP52CGK, ≈1.67 times the quantity was used compared to ACP52C to achieve an equivalent molar quantity. At the time of sacrifice, major organs and tumors were removed and weighed, and blood was extracted. For histological analysis, major organs and tumors of mice were immediately fixed in 10% formalin neutral buffer solution, dehydrated through a graded series of ethanol treatments, treated with xylene, paraffin embedded, and cut into 4 µm sections. Hematoxylin and eosin (H&E)‐stained tissue sections were analyzed and photographed, and the representative histological images were recorded. Liver nodules in the DEN orthotopic liver cancer model were estimated by measuring the ratio of tumor areas over entire liver tissues in the tissue section using an Image J (version 1.51) software at 40× magnification. Complete blood count (CBC) analysis was conducted using a Hematology analyzer (scil Vet ABC) from the extracted blood.

[1] = tested on: murine erythroleukemia (MEL) cells; assay: Erythroid differentiation of MEL cells; format: cell-based; conditions: HMBA‐induced MEL cells, supplementation to the culture
Procedure: Information of the cell lines is listed in Table S1 (Supporting Information), including their origin and culture conditions. All cell lines were cultured at 37 °C, 5% CO2 incubator. MDA‐MB‐231 (LM1), HepG2, Hep3B, and HCT116 cell lines were authenticated with short tandem repeat markers based on ATCC information. All cell lines tested negative for mycoplasma contamination. Transient downregulation of the gene of interest was conducted by siRNA transfection using Lipofectamine 2000 (Thermo Fisher, 11668019) according to the manufacturer's instructions. Information about siRNAs is provided in Table S2 (Supporting Information). Stable cell lines were established by transfecting cells using Effectene reagent (Qiagen, 301425), followed by selection of cell clones in the presence of 1 µg mL^−1 puromycin (Sigma–Aldrich, P8833). The establishment of cell lines was confirmed by WB or RT‐qPCR. For doxycycline‐inducible gene expression regulation, cell lines were incubated in the presence of 1 µg mL^−1 doxycycline (Sigma–Aldrich, D9891) for 2–3 days. To promote sphere formation of the cell lines, each well of the tissue culture dish was coated with 10% poly 2‐hydroxyethyl methacrylate (polyHEMA). An appropriate number of cells per well were seeded in serum‐free DMEM/F12 (HyClone, SH30023.01) supplemented with B27, 20 ng mL^−1 bFGF, and 20 ng mL^−1 EGF. For erythroid terminal differentiation experiments, differentiation was assessed by hemoglobin staining using a 0.2% (w/v) tetramethylbenzidine solution (Sigma–Aldrich, T0440) in 0.6% hydrogen peroxide, 3% acetic acid for 10 min in dark condition. Benzidine‐positive or negative cell numbers were counted under the inverted microscope BX50 (Olympus) at 200 × magnification. […] After each synchronization, cells were fixed at 4‐h intervals for 24 h with ACP52C treatment, and the cell cycle was analyzed by Propidium Iodide (PI) staining or intracellular protein was analyzed by immunofluorescence. […] This development period was repeated four times for one round, after which GI50 concentrations were re‐assessed in each resistant cell line. […]

[2] = intravenous injection at three‐day intervals, Sorafenib orally once daily as positive control

Row | Substance | anti‐tumor activity (Hep3B; [2]) | also measured
1 | HERRES [Pep #5‐1] | – | inhibition of DNA binding activity of CP2c (CP2c): no activity
2 | Ac-NYPQRPGG-K(E-pal)-GGCRGDKGPDC-NH2 [ACP52GK, E‐pal attached via αE COO‐ to lysine between ACP52 and iRGD] | lower anti‐tumor activity compared to ACP52C | –
3 | Ac-K(EGFLG-pal)K-GGNYPQRPCRGDKGPDC-NH2 [ACP52CK, ACP52C with enzyme‐cleavable linker GFLG to palmitic acid] | activity similar to that of Sorafenib | –
4 | DHA-GGNYPQRPCRGDKGPDC-NH2 [DHA‐ACP52C, DHA, an unsaturated fatty acid, conjugated at the N‐terminus of ACP52C] | effectively demonstrated anti‐tumor activity | anti‐tumor activity (Hep3B; administered at five‐day intervals): noticeably higher activity than ACP52C
5 | Ac-K(E-pal)K-GGNYPQRPCRGDKGPDC-NH2 [ACP52CG, palmitic acid linked to lysine at the N‐terminus of ACP52C] | decrease in anti‐tumor activity, resembling Sorafenib | –
6 | Ac-HERRESNYPQRPCRGDKGPDC-NH2 [Pep #5C] | – | inhibition of erythroid differentiation [1]: efficiently inhibited erythroid differentiation
